In ChEMBL document CHEMBL4418298, “Cyp8b1 and uses thereof in therapeutic and diagnostic methods” (2014):

Target: T1, 7-alpha-hydroxycholest-4-en-3-one 12-alpha-hydroxylase (Homo sapiens, UniProt Q9UNU6)
T1 sequence (Q9UNU6 whole entry): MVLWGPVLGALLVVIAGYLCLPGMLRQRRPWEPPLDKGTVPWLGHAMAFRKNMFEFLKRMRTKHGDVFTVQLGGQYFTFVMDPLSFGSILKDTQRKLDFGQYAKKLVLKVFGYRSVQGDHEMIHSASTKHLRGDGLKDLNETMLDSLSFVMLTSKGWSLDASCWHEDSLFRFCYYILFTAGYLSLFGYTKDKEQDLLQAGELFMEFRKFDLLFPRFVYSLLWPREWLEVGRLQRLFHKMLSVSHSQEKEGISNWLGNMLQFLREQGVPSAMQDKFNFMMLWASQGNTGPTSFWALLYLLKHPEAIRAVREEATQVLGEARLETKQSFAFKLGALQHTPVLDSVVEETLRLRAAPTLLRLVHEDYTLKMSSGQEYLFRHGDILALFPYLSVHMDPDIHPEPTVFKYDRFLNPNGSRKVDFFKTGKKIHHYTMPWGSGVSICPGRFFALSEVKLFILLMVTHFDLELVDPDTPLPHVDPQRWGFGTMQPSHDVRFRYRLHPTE
Assay: Inhibition of CYP8B1 in human liver microsomes using D7-7alpha-hydroxy-4-cholesten-3-one as substrate preincubated for 20 mins followed by substrate addition in presence of NADPH by UPLC-ESI-MS/MS analysis

Row | SMILES | IC50 [nM]
1 | CC(C)CCC[C@@H](C)[C@H]1CC[C@H]2[C@@H]3[C@H](O)C[C@@H]4C[C@H](O)CC[C@]4(C)[C@H]3C[C@H](O)[C@]12C | 7600
2 | N[C@@H]1C[C@H]1c1ccccc1.N[C@H]1C[C@@H]1c1ccccc1 (racemic) [TRANYLCYPROMINE] | 7800
3 | Clc1ccccc1C(c1ccccc1)(c1ccccc1)n1ccnc1 [CLOTRIMAZOLE] | 800
4 | Clc1ccc(COC(Cn2ccnc2)c2ccc(Cl)cc2Cl)cc1 (stereo not drawn) [ECONAZOLE] | 310
5 | CCC(C)n1ncn(-c2ccc(N3CCN(c4ccc(OC[C@H]5CO[C@](Cn6cncn6)(c6ccc(Cl)cc6Cl)O5)cc4)CC3)cc2)c1=O (stereo partly drawn) [ITRACONAZOLE] | 4700
6 | CC(=O)N1CCN(c2ccc(OC[C@H]3CO[C@](Cn4ccnc4)(c4ccc(Cl)cc4Cl)O3)cc2)CC1 [KETOCONAZOLE] | 2200
7 | Clc1ccc(COC(Cn2ccnc2)c2ccc(Cl)cc2Cl)c(Cl)c1 (stereo not drawn) [MICONAZOLE] | 1500
8 | CC[C@@H]([C@H](C)O)n1ncn(-c2ccc(N3CCN(c4ccc(OC[C@@H]5CO[C@@](Cn6cncn6)(c6ccc(F)cc6F)C5)cc4)CC3)cc2)c1=O [POSACONAZOLE] | 3800
